Data: patent US9192604B2, “Method of administration and treatment” (GlaxoSmithKline Intellectual Property (No. 2) Limited, priority 2011, dated 2015)
Read-outs that look alike come from different tables or passages of the source.

Key:
[1] = system: merlin negative cell lines; experiment: Anchorage-independent growth-death assay, merlin negative cell line panel; assay type: cell-based; conditions: Homo sapiens, ALL5; second anchorage-independent assay; all 5 merlin negative cell lines; read-out: gIC50 values
Protocol: (§1) Five human mesothelioma cell lines and two additional human lung cancer cell lines available from the ATCC were used in these studies. Cells were grown in RPMI1640 media containing 10% FBS, 1% L-glutamine, 1% sodium pyruvate under standard cell culture conditions. The mesothelioma cell lines: NCI-H2052, MSTO-211H, NCI-H28, NCI-H226, NCI-H2452, and additional lung lines: A549 and SW-1573. An additional three mesothelioma cell lines, Mero-41, Mero-82, and Mero-14, were grown under identical conditions.
The cellular response to Compound A was evaluated in an anchorage-independent cell growth assay that quantified the extent of cell growth inhibition and the net change in cell population. The assay was performed in black, clear bottom, untreated 384-well plates (Greiner #781096). […]
(§2) On day 6, the assay was stopped by developing the plates, placing a black sticker on bottom of each plate to block light, adding 25 μL of CTG, and incubating the plates for 20 minutes at room temperature. The plates were scanned using a luminescence protocol on the EnVision (Perkin-Elmer).
(§3) Results were expressed as a percent of the T0 value and plotted against the compound concentration. […] The cellular response was determined by fitting the concentration response curves using a 4-parameter curve fit equation and determining the concentration that inhibited growth by 50% (gIC50). […]

[2] = system: patients with mesothelioma; experiment: Phase I clinical study, anti-tumor activity (RECIST 1.1, Kaplan-Meier PFS) by merlin status; assay type: in vivo, human
Source text: A multi-part, Phase I study was designed to determine the maximum tolerated dose (MTD), safety, tolerability, pharmacokinetics (PK), pharmacodynamics (PD), and anti-tumor activity of Compound A in patients with advanced solid tumors. Part 1 of the study identified the MTD using a dose escalation procedure, and is described herein. Parts 2-3 are ongoing. Part 2 further explores the safety and tolerability of Compound A at or below the MTD, and Part 3 evaluates the pharmacodynamics of Compound A at doses at and below the MTD. Part 4 was not opened for patient accrual at the time of this summary and will explore the safety, tolerability, pharmacokinetics and clinical activity of Compound A in patients with recurrent glioblastoma multiforme. Part 5 was not opened for patient accrual at the time of this summary and will explore the pharmacokinetics of Compound A over several weeks of administration. Patients with mesothelioma were eligible to participate, e.g, in Part 1, of the study. Patients with mesothelioma were eligible to participate in Parts 1-3 of the study at the time the data below were collected.
Patients 18 years old with advanced solid tumors with histologically or cytologically confirmed diagnosis of a solid tumor malignancy that was not responsive to accepted standard therapies or for which there is no standard or curative therapy were eligible. All patients provided signed informed consent. […] In Parts 2-3 of the study, patients with tumors reported in the literature to overexpress FAK that are not responsive to accepted standard therapies or for which there were no standard or curative therapies were included. Subjects in Part 3 were also required to have solid tumors amenable to biopsy.
Patients with an active gastrointestinal disease known to interfere with the pharmacokinetics of drugs or prior resection of the small intestine were ineligible. Other exclusion criteria included unresolved toxicity>Grade 1 from previous anticancer therapy except alopecia, QTcF interval>450 msecs in males (470 in females) or congenital long QT syndrome, history of acute coronary syndromes, Class II-IV heart failure as defined by the New York Heart Association, symptomatic or untreated brain metastases, primary malignancy of the central nervous system (in Parts 1-3), nursing females, consumption of dietary substances or prohibited medications as defined in the protocol, or any serious and/or unstable pre-existing medical, psychiatric, or other condition that could interfere with subject safety or obtaining informed consent.
Measurements to evaluate safety included weight, heart rate, blood pressure, temperature, clinical laboratory tests, 12-lead ECG, and neurologic and physical evaluation. Adverse events were assessed throughout the study using the CTCAE v4.0, Common Terminology Criteria for Adverse Events (CTCAE) Version 4.0, US Department of Health and Human Services, National Institutes of Health, National Cancer Institute, May 2009.
Disease assessment was performed at screening and every 6 weeks after the start of dosing. Response was recorded as complete response (CR), partial response (PR), stable disease (SD), or progressive disease (PD) according to the RECIST Version 1.1.
To determine if loss of merlin in the current Phase I mesothelioma population was predictive of response to Compound A, merlin levels were assessed in archival tissue (FFPE) collected at screening by immunohistochemistry (IHC), and the result correlated to clinical endpoint of median progression free survival (PFS).
A custom IHC assay was developed by Mosaic laboratories, Inc, employing a rabbit polyclonal antibody (Santa Cruz Biotechnology, Inc, catalog # SC332) using a dilution of 1:1600. The antibody signal was evaluated by Envision+rabbit HRP (DAKO) detection kit, and the staining intensity (Grade 0-3+) was used to categorize merlin status (merlin positive=wildtype or merlin negative=loss of merlin) of the clinical samples tested. […]

[3] = system: NCI-H2052 cells; experiment: Anchorage-independent growth-death assay (methylcellulose, CellTiter-Glo, 6 days); assay type: cell-based, human; conditions: for IC50: Homo sapiens, read-out: Growth Inhibition gIC50
Protocol: as §1
(§4) The cellular response to Compound A was evaluated in an anchorage-independent cell growth assay that quantified the extent of cell growth inhibition and the net change in cell population. The assay was performed in black, clear bottom, untreated 384-well plates (Greiner #781096). It is important to use either non-tissue culture treated or Low Attachment plates to prevent cells from adhering to the plate during the assay. In brief, the assay was performed as described below.
(§5) A 1% (weight/volume) stock of methylcellulose solution was prepared by dissolving 5 grams of sterilized methylcellulose (Sigma #M0512) in 495 mL of cell culture medium. Here, RPMI1640 media containing 10% FBS, 1% L-glutamine, 1% sodium pyruvate was added to the cooled methylcellulose that had been placed in a glass container and autoclaved to sterilize. Media can be substituted if the cells require different cell culture medium for growth. The dissolution often took a day with vigorous stirring at 4° C. maintaining sterile conditions.
(§6) Cells were plated into a 384 well plate with assay conditions of 0.65% methylcellulose (final concentration) and 1000 cells per well in a final volume of 48 μL. This was achieved by diluting cells harvested from culture and re-suspended in growth medium (dilute to 2.0833×10^4 cells/mL) with the 1% methylcellulose. The cells were mixed by inversion to distribute evenly, bubbles were dispersed and 48 μL was placed into the well with a positive displacement pipette. The plates were placed in a cell culture incubator containing 5% CO2 at 37° C.
(§7) Serial dilution of compound in DMSO was done in a 384 well plate starting with 20 μL of stock compound solution in the first column and 10 μL of DMSO in the other wells. Ten μL from the compound well was transferred into the DMSO containing well, mixed, and the serial dilution was continued with 10 μL transfers across the plate. Then, 4 μL of this DMSO diluted compound was added into wells of a new 384 well plate containing 105 μL of appropriate growth medium. This ‘compound plate’ was used to dose the assay plates containing cells in methylcellulose.
(§8) To initiate the assay, two μL from each well of the ‘compound plate’ were added to individual wells of the ‘assay plates,’ each well containing the 48 μL of cells in methylcellulose. These assay plates were placed in the cell culture incubator for 6 days. One plate was selected at random and developed with Cell TiterGlo (CTG) at the time of compound addition to represent the time equal zero (T0) plate, i.e. to represent the number of cells at the time of compound addition.
as §2
as §3, with “(gIC50). The gIC50 value is the midpoint of the growth window (between T0 and growth of DMSO controls).” for “(gIC50).”

[4] = system: NCI-H226 cells; experiment: as above; assay type: cell-based, human; conditions: second anchorage-independent assay, NCI-H226, merlin negative
Protocol: as §1, §4, §5, §6, §7, §8, §2
as §3, with “(gIC50). The gIC50 value is the midpoint of the growth window (between T0 and growth of DMSO controls).” for “(gIC50).”

[5] = system: Mero-82 cells; experiment: as above; assay type: cell-based, human; conditions: second anchorage-independent assay, Mero-82, merlin negative
Protocol: as §1, §4, §5, §6, §7, §8, §2
as §3, with “(gIC50). The gIC50 value is the midpoint of the growth window (between T0 and growth of DMSO controls).” for “(gIC50).”

[6] = system: MSTO-211H cells; experiment: as above; assay type: cell-based, human; conditions: for IC50: Homo sapiens
Protocol: as §1, §4, §5, §6, §7, §8, §2
as §3, with “(gIC50). The gIC50 value is the midpoint of the growth window (between T0 and growth of DMSO controls).” for “(gIC50).”

[7] = system: Mero-14 cells; experiment: as above; assay type: cell-based, human; conditions: second anchorage-independent assay, Mero-14, merlin negative
Protocol: as §1, §4, §5, §6, §7, §8, §2
as §3, with “(gIC50). The gIC50 value is the midpoint of the growth window (between T0 and growth of DMSO controls).” for “(gIC50).”

[8] = system: Mero-41 cells; experiment: as above; assay type: cell-based, human; conditions: second anchorage-independent assay, Mero-41, merlin negative
Protocol: as §1, §4, §5, §6, §7, §8, §2
as §3, with “(gIC50). The gIC50 value is the midpoint of the growth window (between T0 and growth of DMSO controls).” for “(gIC50).”

[9] = mesothelioma patients, 26 with radiologic assessments, RECIST 1.1
[10] = second anchorage-independent assay, NCI-H2052, merlin negative
[11] = Homo sapiens, read-out: Growth Inhibition gIC50

`CONC(=O)c1ccccc1Nc1cc(Nc2cc(C)nn2C(C)C)ncc1Cl` [Compound A, 2-[(5-chloro-2-{[3-methyl-1-(1-methylethyl)-1H-pyrazol-5-yl]amino}-4-pyridinyl)amino]-N-(methyloxy)benzamide] was tested, and the IC50 [1] was < 0.25 µM, the “Overall median progression free survival (PFS)” value ([2]; all mesothelioma patients, 95% CI 9.7, 24.1, Kaplan-Meier) was 17.7 weeks and the “Patients with PD as best response to treatment” value [2, 9] was 9 patients. The “Patients with SD as best response to treatment” value [2, 9] was “fourteen”, the “Patients with non-CR/non-PD as best response to treatment” value [2, 9] was “three” and the “PR or CR; minor responses” value ([2]; mesothelioma patients, RECIST 1.1) was “no patients experienced a PR or CR, minor responses in some patients with mesothelioma were seen”. For the same molecule, the “Merlin negative patients remaining on study for more than four months” value ([2]; mesothelioma, merlin negative) was “Seven of 14”, the “Median PFS in merlin negative subjects” value ([2]; mesothelioma, merlin negative, n=14, 95% CI 6.0, 29.3) was 24.1 weeks and the “Merlin positive patients remaining on study for more than four months” value ([2]; mesothelioma, merlin positive) was “three of nine”. The “Median PFS in merlin positive subjects” value ([2]; mesothelioma, merlin positive, n=9, 95% CI 7.3, undefined) was 11.4 weeks, the IC50 ([3]; 144 h, initial anchorage-independent assay, NCI-H2052, NF2 mutant, merlin negative, 6 days) was 0.186 µM and the IC50 [3, 10] was 0.236 µM. The “Net Pop. change Ymin-T0” value ([3]; initial anchorage-independent assay, NCI-H2052, NF2 mutant, 6 days) was −3%, the “Net Population Change Ymin-T0” value [3, 10] was 7% and the IC50 [4, 11] was 0.196 µM. For the same molecule, the “Net Population Change Ymin-T0” value [4] was −18%, the IC50 [5, 11] was 0.059 µM and the “Net Population Change Ymin-T0” value [5] was −22%. The IC50 ([6]; 144 h, initial anchorage-independent assay, MSTO-211H, NF2 wild-type, merlin positive, 6 days, read-out: Growth Inhibition gIC50) was 3.59 µM, the IC50 ([6]; second anchorage-independent assay, MSTO-211H, merlin positive, read-out: Growth Inhibition gIC50) was 10.9 µM and the IC50 ([6]; second anchorage-independent assay, merlin positive cell line (MSTO-211H), read-out: Concentration required for 50% growth inhibition) was ~10 µM. The “Net Pop. change Ymin-T0” value ([6]; initial anchorage-independent assay, MSTO-211H, NF2 wild-type, 6 days, highest concentration ~30 μM) was 343%, the “Net Population Change Ymin-T0” value ([6]; second anchorage-independent assay, MSTO-211H, merlin positive) was 367% and the IC50 [7, 11] was 0.063 µM. The “Net Population Change Ymin-T0” value [7] was −55%, the IC50 [8, 11] was 0.054 µM and the “Net Population Change Ymin-T0” value [8] was −54%.
